How the values were obtained:
[1] = tested on: MDA-MB-231 and MDA-MB-468 cells; test: Immunofluorescence of γH2AX and p62; assay type: cell-based, Human
Protocol: Cells were plated on glass coverslips in 24-well plates prior to treatment. After being exposed to different doses of compound 7a for 48 h, cells were washed with PBS for three times, fixed with 4% paraformaldehyde-PBS for 30 min, and then followed by permeabilization with 0.1% Triton X-100 for 10 min. Next, the samples were blocked with QuickBlock Blocking Buffer for Immunol Staining (Beyotime) for 30 min at 37° C., and incubated with anti-Ki67 (1:250), anti-LC3B antibody (1:250), anti-SQSTM1 antibody (1:250) or anti-γH2AX (1:250) overnight at 4° C. After washing with PBS three times, the stained cells were incubated with Alexa Fluor-conjugated secondary antibodies (1:2000) for 1 hour at room temperature. Moreover, 1 mg/mL DAPI dissolved in PBS were employed to label nuclei (30 min). Images were captured with a High Content analysis system (Perkinelmer, MA, USA).

[2] = tested on: TNBC cells; test: MTT cell viability assay, statements for both TNBC lines; assay type: cell-based, Human; conditions: MDA-MB-231 and MDA-MB-468; 24, 48 and 72 h
Protocol: Compounds were dissolved in a hydrous dimethylsulfoxide (DMSO, Life technologies) to obtain a 50 mM stock solution, which was then added to the culture medium at a concentration range of 6.25-100 μM. […] Z-VAD-FMK was purchased from Selleckchem (Houston, Tex.); The reagents including 3-(4,5-dimethylthiazol-2-yl)-2,5-diphenyltetrazolium bromide (MTT), dimethyl sulfoxide (DMSO), penicillin, streptomycin, propidium iodide (PI) were purchased from Sigma-Aldrich (MO, USA); All the primary antibodies used in this study were from Cell Signaling Technology (MA, USA) and the secondary antibodies were from LI-COR Biosciences (NE, USA).
(§1) Human triple negative breast cancer cell lines MDA-MB-231 and MDA-MB-468 were purchased from the American Type Culture Collection (ATCC, VA, USA). These cells were cultured in high-glucose DMEM (Gibco, USA) supplemented with 10% fetal bovine serum (FBS, Gibco) and 1% penicillin/streptomycin (Gibco) at 37° C. in a humidified incubator containing 5% CO2.
(§2) The antiproliferative activity of compounds was measured with the MTT assay. […] The absorbance value was determined at 570 nm using a microplate reader (Bio-Tek, VT, USA). Data were analyzed by GraphPad Prism 6. […]

[3] = tested on: MDA-MB-231 cells; test: MTT cell viability assay; assay type: cell-based; conditions: Homo sapiens
Protocol: (§3) Compounds were dissolved in a hydrous dimethylsulfoxide (DMSO, Life technologies) to obtain a 50 mM stock solution, which was then added to the culture medium at a concentration range of 6.25-100 μM. Cells were treated with compounds at indicated concentrations for 48 h, and 0.1% DMSO was used as the vehicle. Z-VAD-FMK was purchased from Selleckchem (Houston, Tex.); The reagents including 3-(4,5-dimethylthiazol-2-yl)-2,5-diphenyltetrazolium bromide (MTT), dimethyl sulfoxide (DMSO), penicillin, streptomycin, propidium iodide (PI) were purchased from Sigma-Aldrich (MO, USA); All the primary antibodies used in this study were from Cell Signaling Technology (MA, USA) and the secondary antibodies were from LI-COR Biosciences (NE, USA).
as §1, §2

[4] = tested on: MDA-MB-468 cells; test: MTT cell viability assay; assay type: cell-based; conditions: Homo sapiens
Protocol: as §3, §1, §2

[5] = tested on: MDA-MB-231 and MDA-MB-468 cells; test: Mitochondrial membrane potential (JC-1) assay; assay type: cell-based, Human; conditions: 20 μM/L, 48 h
Protocol: The JC-1 Assay Kit (Beyotime) was used to monitor the alteration of mitochondrial membrane potential as the manufacturer's instructions. MDA-MB-231 and MDA-MB-468 cells were seeded in six-well plates with an appropriate density (2×10^5/mL) and then treated with compound 7a at various concentrations (0, 5, 10, 20 μM) for 48 h. Then 100 μL of JC-1 staining solution was added into 1 mL of medium and incubated for 20 min at cell incubator. The BD Accuri™ C6 flow cytometry was used to analyze the samples. Each experiment was carried out in triplicate, and the results were expressed as the mean±SD.

IC50 [3]: 8.3 µM
IC50 [4]: 6 µM
SMILES: O=C(NC1CCCCC1)c1[nH]cnc1-c1nc2ccccc2[nH]1 [Compound 7a]
γH2AX foci ([1]; 48 h): accumulation of γH2AX foci in nuclei
p62 signal in nuclei ([1]; dose-dependent): accumulated in the nuclei
TNBC cell viability [2]: efficiently inhibited TNBC cell viability in a time- and dose-dependent manner
cells with reduced mitochondrial membrane potential [5]: ~50%
